Test results from ChEMBL document CHEMBL3885881, “DrugMatrix”.

Species on record: Rattus norvegicus
Test: DrugMatrix - Regimen: Daily Repeat
Format: toxicity, organism-based, Sprague-Dawley
Parameters: regimen Daily Repeat, gender Male, age 6-8 weeks
Details: in vivo, po, route oral GAVAGE, vehicle .5 % CMC; for BASOPHIL / EOSINOPHIL / ERYTHROCYTE COUNT / HEMATOCRIT / HEMOGLOBIN / LEUKOCYTE COUNT / LYMPHOCYTE / MEAN CORPUSCULAR HEMOGLOBIN / MEAN CORPUSCULAR HEMOGLOBIN CONCENTRATION / MEAN CORPUSCULAR VOLUME / MONOCYTE / NEUTROPHIL / PLATELET COUNT: tissue Blood; for ALANINE AMINOTRANSFERASE / ALBUMIN / ALKALINE PHOSPHATASE / ASPARTATE AMINOTRANSFERASE / BLOOD UREA NITROGEN / CHLORIDE / CHOLESTEROL / CREATINE PHOSPHOKINASE / CREATININE / GLUCOSE / PHOSPHORUS / POTASSIUM / SODIUM / TOTAL BILIRUBIN / TOTAL PROTEIN: tissue Plasma
[1] = 0 mg/kg, 72 h, dose level Control, time 3 day
[2] = 0 mg/kg, 120 h, dose level Control, time 5 day
[3] = 41 mg/kg, 72 h, dose level High, time 3 day
[4] = 41 mg/kg, 120 h, dose level High, time 5 day
[5] = […], 72 h, dose 4.1 mg/Kg, dose level Low, time 3 day
[6] = […], 120 h, dose 4.1 mg/Kg, dose level Low, time 5 day

O=C1c2ccccc2C(=O)C1c1ccccc1 [PHENINDIONE]
BASOPHIL [1]: 0.68%
EOSINOPHIL [1]: 0.46%
ERYTHROCYTE COUNT [1]: 7.15 x10E6/uL
HEMATOCRIT [1]: 45.44%
HEMOGLOBIN [1]: 14.1 G/DL
LEUKOCYTE COUNT [1]: 9.78 x10E3/uL
LYMPHOCYTE [1]: 84.44%
MEAN CORPUSCULAR HEMOGLOBIN [1]: 19.72 pg
MEAN CORPUSCULAR HEMOGLOBIN CONCENTRATION [1]: 31 G/DL
MEAN CORPUSCULAR VOLUME [1]: 63.66 fL
MONOCYTE [1]: 2.14%
NEUTROPHIL [1]: 11.16%
PLATELET COUNT [1]: 1378.2 x10E3/uL
ALANINE AMINOTRANSFERASE [1]: 42.33 u/L
ALBUMIN [1]: 3.8 G/DL
ALKALINE PHOSPHATASE [1]: 388.17 u/L
ASPARTATE AMINOTRANSFERASE [1]: 68 u/L
BLOOD UREA NITROGEN [1]: 16.17 mg/dL
CHLORIDE [1]: 96.67 MEQ/L
CHOLESTEROL [1]: 71 mg/dL
CREATINE PHOSPHOKINASE [1]: 156.17 u/L
CREATININE [1]: 0.57 mg/dL
GLUCOSE [1]: 193.67 mg/dL
PHOSPHORUS [1]: 11.43 mg/dL
POTASSIUM [1]: 7 MEQ/L
SODIUM [1]: 140.33 MEQ/L
TOTAL BILIRUBIN [1]: 0.48 mg/dL
TOTAL PROTEIN [1]: 6.8 G/DL
BASOPHIL [2]: 1.47%
EOSINOPHIL [2]: 1%
ERYTHROCYTE COUNT [2]: 7.12 x10E6/uL
HEMATOCRIT [2]: 45.47%
HEMOGLOBIN [2]: 14.1 G/DL
LEUKOCYTE COUNT [2]: 11.38 x10E3/uL
LYMPHOCYTE [2]: 82.57%
MEAN CORPUSCULAR HEMOGLOBIN [2]: 19.82 pg
MEAN CORPUSCULAR HEMOGLOBIN CONCENTRATION [2]: 31.02 G/DL
MEAN CORPUSCULAR VOLUME [2]: 63.88 fL
MONOCYTE [2]: 2.2%
NEUTROPHIL [2]: 11.97%
PLATELET COUNT [2]: 1267 x10E3/uL
ALANINE AMINOTRANSFERASE [2]: 38 u/L
ALBUMIN [2]: 3.72 G/DL
ALKALINE PHOSPHATASE [2]: 391 u/L
ASPARTATE AMINOTRANSFERASE [2]: 65.83 u/L
BLOOD UREA NITROGEN [2]: 14.17 mg/dL
CHLORIDE [2]: 107.67 MEQ/L
CHOLESTEROL [2]: 61 mg/dL
CREATINE PHOSPHOKINASE [2]: 148.33 u/L
CREATININE [2]: 0.57 mg/dL
GLUCOSE [2]: 177.17 mg/dL
PHOSPHORUS [2]: 12.07 mg/dL
POTASSIUM [2]: 7.2 MEQ/L
SODIUM [2]: 151.5 MEQ/L
TOTAL BILIRUBIN [2]: 0.58 mg/dL
TOTAL PROTEIN [2]: 6.72 G/DL
BASOPHIL [3]: 0.3%
EOSINOPHIL [3]: 0.33%
ERYTHROCYTE COUNT [3]: 7.21 x10E6/uL
HEMATOCRIT [3]: 45.77%
HEMOGLOBIN [3]: 14.17 G/DL
LEUKOCYTE COUNT [3]: 11.97 x10E3/uL
LYMPHOCYTE [3]: 84.4%
MEAN CORPUSCULAR HEMOGLOBIN [3]: 19.77 pg
MEAN CORPUSCULAR HEMOGLOBIN CONCENTRATION [3]: 30.97 G/DL
MEAN CORPUSCULAR VOLUME [3]: 63.73 fL
MONOCYTE [3]: 2.13%
NEUTROPHIL [3]: 11.97%
PLATELET COUNT [3]: 1382.67 x10E3/uL
ALANINE AMINOTRANSFERASE [3]: 31.33 u/L
ALBUMIN [3]: 3.67 G/DL
ALKALINE PHOSPHATASE [3]: 276 u/L
ASPARTATE AMINOTRANSFERASE [3]: 57 u/L
BLOOD UREA NITROGEN [3]: 11 mg/dL
CHLORIDE [3]: 96 MEQ/L
CHOLESTEROL [3]: 75.33 mg/dL
CREATINE PHOSPHOKINASE [3]: 160 u/L
CREATININE [3]: 0.47 mg/dL
GLUCOSE [3]: 189.67 mg/dL
PHOSPHORUS [3]: 13.23 mg/dL
POTASSIUM [3]: 6.77 MEQ/L
SODIUM [3]: 140.67 MEQ/L
TOTAL BILIRUBIN [3]: 0.27 mg/dL
TOTAL PROTEIN [3]: 6.63 G/DL
BASOPHIL [4]: 1.47%
EOSINOPHIL [4]: 0.3%
ERYTHROCYTE COUNT [4]: 7.12 x10E6/uL
HEMATOCRIT [4]: 45.4%
HEMOGLOBIN [4]: 14.17 G/DL
LEUKOCYTE COUNT [4]: 14.99 x10E3/uL
LYMPHOCYTE [4]: 85.6%
MEAN CORPUSCULAR HEMOGLOBIN [4]: 19.93 pg
MEAN CORPUSCULAR HEMOGLOBIN CONCENTRATION [4]: 31.23 G/DL
MEAN CORPUSCULAR VOLUME [4]: 63.83 fL
MONOCYTE [4]: 2.43%
NEUTROPHIL [4]: 9.5%
PLATELET COUNT [4]: 1502.67 x10E3/uL
ALANINE AMINOTRANSFERASE [4]: 34 u/L
ALBUMIN [4]: 3.53 G/DL
ALKALINE PHOSPHATASE [4]: 292 u/L
ASPARTATE AMINOTRANSFERASE [4]: 57 u/L
BLOOD UREA NITROGEN [4]: 10.67 mg/dL
CHLORIDE [4]: 103.67 MEQ/L
CHOLESTEROL [4]: 83.33 mg/dL
CREATINE PHOSPHOKINASE [4]: 132.67 u/L
CREATININE [4]: 0.47 mg/dL
GLUCOSE [4]: 192.67 mg/dL
PHOSPHORUS [4]: 12.77 mg/dL
POTASSIUM [4]: 7.37 MEQ/L
SODIUM [4]: 150 MEQ/L
TOTAL BILIRUBIN [4]: 0.37 mg/dL
TOTAL PROTEIN [4]: 6.43 G/DL
BASOPHIL [5]: 0.47%
EOSINOPHIL [5]: 0.27%
ERYTHROCYTE COUNT [5]: 7.09 x10E6/uL
HEMATOCRIT [5]: 45.17%
HEMOGLOBIN [5]: 13.97 G/DL
LEUKOCYTE COUNT [5]: 12.61 x10E3/uL
LYMPHOCYTE [5]: 82.37%
MEAN CORPUSCULAR HEMOGLOBIN [5]: 19.7 pg
MEAN CORPUSCULAR HEMOGLOBIN CONCENTRATION [5]: 30.9 G/DL
MEAN CORPUSCULAR VOLUME [5]: 63.73 fL
MONOCYTE [5]: 2.5%
NEUTROPHIL [5]: 13.5%
PLATELET COUNT [5]: 1416.33 x10E3/uL
ALANINE AMINOTRANSFERASE [5]: 33 u/L
ALBUMIN [5]: 3.63 G/DL
ALKALINE PHOSPHATASE [5]: 396.33 u/L
ASPARTATE AMINOTRANSFERASE [5]: 56 u/L
BLOOD UREA NITROGEN [5]: 11.33 mg/dL
CHLORIDE [5]: 96 MEQ/L
CHOLESTEROL [5]: 74.67 mg/dL
CREATINE PHOSPHOKINASE [5]: 136.67 u/L
CREATININE [5]: 0.47 mg/dL
GLUCOSE [5]: 209.33 mg/dL
PHOSPHORUS [5]: 12.83 mg/dL
POTASSIUM [5]: 6.4 MEQ/L
SODIUM [5]: 140.33 MEQ/L
TOTAL BILIRUBIN [5]: 0.27 mg/dL
TOTAL PROTEIN [5]: 6.5 G/DL
BASOPHIL [6]: 1.43%
EOSINOPHIL [6]: 0.2%
ERYTHROCYTE COUNT [6]: 6.9 x10E6/uL
HEMATOCRIT [6]: 44.03%
HEMOGLOBIN [6]: 13.87 G/DL
LEUKOCYTE COUNT [6]: 10.25 x10E3/uL
LYMPHOCYTE [6]: 84.9%
MEAN CORPUSCULAR HEMOGLOBIN [6]: 20.03 pg
MEAN CORPUSCULAR HEMOGLOBIN CONCENTRATION [6]: 31.4 G/DL
MEAN CORPUSCULAR VOLUME [6]: 63.83 fL
MONOCYTE [6]: 2.17%
NEUTROPHIL [6]: 10.6%
PLATELET COUNT [6]: 1408.33 x10E3/uL
ALANINE AMINOTRANSFERASE [6]: 37.33 u/L
ALBUMIN [6]: 3.6 G/DL
ALKALINE PHOSPHATASE [6]: 340.67 u/L
ASPARTATE AMINOTRANSFERASE [6]: 58 u/L
BLOOD UREA NITROGEN [6]: 9 mg/dL
CHLORIDE [6]: 103.33 MEQ/L
CHOLESTEROL [6]: 58 mg/dL
CREATINE PHOSPHOKINASE [6]: 132.33 u/L
CREATININE [6]: 0.43 mg/dL
GLUCOSE [6]: 190.33 mg/dL
PHOSPHORUS [6]: 13.17 mg/dL
POTASSIUM [6]: 7.2 MEQ/L
SODIUM [6]: 150.33 MEQ/L
TOTAL BILIRUBIN [6]: 0.27 mg/dL
